Experimental data published in ChEMBL document CHEMBL5149969, “Amyloid-β and tau aggregation dual-inhibitors: A synthetic and structure-activity relationship focused review” (Eur J Med Chem, 2021).

Key:
[1] = molecular target: T1, Amyloid-beta precursor protein (Homo sapiens, UniProt P05067); test: Inhibition of amyloid beta 42 (unknown origin) expressed in Escherichia coli BL21 (DE3) at 10 uM relative to control
[2] = molecular target: T2, Microtubule-associated protein tau (Homo sapiens, UniProt P10636); test: Inhibition of Tau (unknown origin) expressed in Escherichia coli BL21 (DE3) at 10 uM relative to control
T2 sequence (P10636 whole entry): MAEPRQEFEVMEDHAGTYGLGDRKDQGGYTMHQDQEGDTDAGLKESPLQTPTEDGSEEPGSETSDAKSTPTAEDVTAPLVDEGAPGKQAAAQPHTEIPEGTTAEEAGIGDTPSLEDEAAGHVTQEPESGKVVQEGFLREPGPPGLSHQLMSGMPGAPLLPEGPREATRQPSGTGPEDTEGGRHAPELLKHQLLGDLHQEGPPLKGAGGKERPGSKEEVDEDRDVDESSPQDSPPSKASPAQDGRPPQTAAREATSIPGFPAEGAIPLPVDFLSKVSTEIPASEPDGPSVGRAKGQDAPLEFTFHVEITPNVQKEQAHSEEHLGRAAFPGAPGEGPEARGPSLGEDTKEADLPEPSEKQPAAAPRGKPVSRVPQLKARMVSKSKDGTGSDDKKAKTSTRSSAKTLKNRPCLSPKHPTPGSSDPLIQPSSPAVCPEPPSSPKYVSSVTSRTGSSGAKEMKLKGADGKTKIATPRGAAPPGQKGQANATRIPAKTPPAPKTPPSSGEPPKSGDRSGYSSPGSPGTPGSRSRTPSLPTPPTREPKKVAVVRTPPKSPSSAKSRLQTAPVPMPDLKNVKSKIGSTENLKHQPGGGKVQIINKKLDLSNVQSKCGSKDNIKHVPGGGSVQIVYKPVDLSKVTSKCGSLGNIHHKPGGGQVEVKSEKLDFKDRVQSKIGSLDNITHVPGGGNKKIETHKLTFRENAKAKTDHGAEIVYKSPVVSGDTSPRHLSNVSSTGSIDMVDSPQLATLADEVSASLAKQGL

[3] = molecular target: T2, Microtubule-associated protein tau; test: Inhibition of tau depolymerization (unknown origin) transfected in H4 cells incubated for 20 to 24 hrs by LPECL assay; format: cell-based
[4] = molecular target: T2, Microtubule-associated protein tau; test: Inhibition of tau (unknown origin) transfected in human H4 cells incubated for 20 to 24 hrs by LPECL assay; format: cell-based
[5] = Inhibition of amyloid beta 38 secretion transfected in human H4 cells incubated for 20 to 24 hrs by LPECL assay; format: cell-based
[6] = molecular target: T1, Amyloid-beta precursor protein; test: Inhibition of amyloid beta 42 transfected in human H4 cells incubated for 20 to 24 hrs by LPECL assay; format: cell-based
[7] = molecular target: T2, Microtubule-associated protein tau; test: Inhibition of tau aggregation (unknown origin) at 20 uM relative to control
[8] = molecular target: T1, Amyloid-beta precursor protein; test: Inhibition of amyloid beta 42 (unknown origin) at 20 uM relative to control

T1 sequence (P05067 whole entry): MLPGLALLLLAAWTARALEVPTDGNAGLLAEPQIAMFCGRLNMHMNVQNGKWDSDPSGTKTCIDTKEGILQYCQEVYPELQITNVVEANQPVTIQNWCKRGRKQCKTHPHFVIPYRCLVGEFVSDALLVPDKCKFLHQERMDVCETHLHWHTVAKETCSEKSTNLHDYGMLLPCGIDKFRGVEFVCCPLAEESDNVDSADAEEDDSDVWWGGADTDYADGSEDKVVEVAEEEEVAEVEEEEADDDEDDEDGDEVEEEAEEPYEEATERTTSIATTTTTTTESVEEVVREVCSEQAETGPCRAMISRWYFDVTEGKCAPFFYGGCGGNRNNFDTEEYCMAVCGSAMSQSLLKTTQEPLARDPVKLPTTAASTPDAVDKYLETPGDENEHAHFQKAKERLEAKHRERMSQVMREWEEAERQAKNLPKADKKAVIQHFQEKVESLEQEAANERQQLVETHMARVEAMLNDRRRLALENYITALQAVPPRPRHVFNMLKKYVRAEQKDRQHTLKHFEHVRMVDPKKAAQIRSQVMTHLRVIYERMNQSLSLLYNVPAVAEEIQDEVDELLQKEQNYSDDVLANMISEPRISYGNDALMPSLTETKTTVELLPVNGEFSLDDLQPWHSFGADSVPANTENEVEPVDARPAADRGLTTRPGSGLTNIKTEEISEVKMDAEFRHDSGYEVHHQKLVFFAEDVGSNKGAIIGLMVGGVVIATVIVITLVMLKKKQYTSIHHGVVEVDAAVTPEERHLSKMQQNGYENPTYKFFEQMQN

Row | Compound | inhibition [1] [%] | inhibition [2] [%] | DC50 [3] [µM] | IC50 [4] [µM] | IC50 [5] [µM] | further results
1 | Cc1c(OCc2ccccc2)cccc1N1CCN(CCCNCc2ccccc2)CC1 | 64.9 | 64.5 |  |  |  | 
2 | COc1cc(/C=C/c2cc(/C=C/c3ccc(O)c(OC)c3)n(-c3cc(Cl)cc(Cl)c3)n2)ccc1O |  |  | > 200 | 10 | 3.3 | 
3 | COc1cc(/C=C/c2cc(/C=C/c3ccc(OCC(=O)O)c(OC)c3)on2)ccc1OCC(=O)O |  |  | > 200 | > 200 | > 40 | IC50 [6]: > 1000 nM
4 | O=S(=O)(c1ccccc1)n1ccc2c(N3CCN(CCN4CCN(Cc5cccc6c5ccn6Cc5ccccc5)CC4)CC3)cccc21 | 64.8 | 54.6 |  |  |  | 
5 | Nc1c2c(nc3ccccc13)CC/C(=C\c1ccccc1)C2=O |  |  |  |  |  | inhibition [7]: 18.7%
6 | Cc1c(OCc2ccccc2)cccc1N1CCN(CCCCCCNCc2ccccc2)CC1 | 64.2 | 64.8 |  |  |  | 
7 | Cc1c(OCc2ccccc2)cccc1N1CCN(CCCNC2CCN(Cc3ccccc3)CC2)CC1 | 55.7 | 60.2 |  |  |  | 
8 | COc1cc(/C=C/c2cc(/C=C/c3ccc(O)c(OC)c3)n(Cc3ccccc3)n2)ccc1O |  |  | 73 | 35 | 7.7 | IC50 [6]: > 1000 nM
9 | C[n+]1c2c(c(N)c3ccccc31)C(=O)/C(=C/c1cccc([N+](=O)[O-])c1)CC2 |  |  |  |  |  | inhibition [7]: 98.2%; inhibition [8]: 86.4%
10 | C[n+]1c2c(c(N)c3ccccc31)C(=O)/C(=C/c1cccs1)CC2 |  |  |  |  |  | inhibition [7]: 95.3%
11 | COc1cc(/C=C/c2cc(/C=C/c3ccc(OCC(=O)OC(C)(C)C)c(OC)c3)on2)ccc1OCC(=O)OC(C)(C)C |  |  | > 200 | > 200 | > 40 | IC50 [6]: > 1000 nM
12 | COc1cc(/C=C/C(=O)CC(=O)/C=C/c2ccc(O)c(OC)c2)ccc1O [CURCUMIN] |  |  |  |  | > 20 | 
13 | COc1cc(/C=C/c2cc(/C=C/c3ccc(O)c(OC)c3)n(CCO)n2)ccc1O |  |  | 65 | 69 | 13.6 | 
14 | COc1cc(/C=C/c2cc(/C=C/c3ccc(O)c(OC)c3)n(-c3ccc(C(C)C)cc3)n2)ccc1O |  |  | 190 | 18 | 4.7 | IC50 [6]: > 1000 nM
15 | C[n+]1c2c(c(N)c3ccccc31)C(=O)/C(=C/c1ccccc1)CC2 |  |  |  |  |  | inhibition [7]: 71.2%
16 | COc1cc(/C=C/c2cc(/C=C/c3ccc(O)c(OC)c3)n(-c3ccccc3)n2)ccc1O |  |  | 73 | 103 | 6.3 | IC50 [6]: > 1000 nM
17 | COc1cc(/C=C/c2cc(/C=C/c3ccc(O)c(OC)c3)n(C)n2)ccc1O |  |  | 8 | 13 | 6.3 | 
18 | COc1cc(/C=C/c2cc(/C=C/c3ccc(O)c(OC)c3)n(-c3ccc([N+](=O)[O-])cc3)n2)ccc1O |  |  | 1.1 | 1.2 | 3.5 | IC50 [6]: > 1000 nM
19 | C[n+]1c2c(c(N)c3ccccc31)C(=O)/C(=C/c1cccc(Cl)c1)CC2 |  |  |  |  |  | inhibition [7]: 98.3%
20 | Cc1c(OCc2ccccc2)cccc1N1CCN(CCCCNC2CCN(Cc3ccccc3)CC2)CC1 | 62 | 62.8 |  |  |  | 
21 | O=S(=O)(c1ccccc1)n1ccc2c(N3CCN(CCCCCCNC4CCN(Cc5ccccc5)CC4)CC3)cccc21 | 61.8 | 52.7 |  |  |  | 
22 | COc1cc(/C=C/c2cc(/C=C/c3ccc(O)c(OC)c3)n(-c3ccc(C)cc3)n2)ccc1O |  |  | > 200 | 35 | 6 | IC50 [6]: > 1000 nM
23 | C[n+]1c2c(c(N)c3ccccc31)C(=O)/C(=C/c1cccc3ccccc13)CC2 |  |  |  |  |  | inhibition [7]: 102%
24 | COc1cc(/C=C/c2cc(/C=C/c3ccc(O)c(OC)c3)[nH]n2)ccc1O [CURCUMIN PYRAZOLE] |  |  | 17 | 34 | 5.2 | IC50 [6]: 476 nM
25 | COc1cc(/C=C/c2cc(/C=C/c3ccc(O)c(OC)c3)on2)ccc1O |  |  | > 200 | > 200 | 6.1 | 
26 | COc1cc(/C=C/c2cc(/C=C/c3ccc(O)c(OC)c3)n(-c3cccc([N+](=O)[O-])c3)n2)ccc1O |  |  | 4 | 5 | 8.1 | 
27 | CN(C)c1ccc2nc3ccc(=[N+](C)C)cc-3sc2c1 |  |  |  |  |  | inhibition [7]: 80.1%
28 | C[n+]1c2c(c(N)c3ccccc31)C(=O)/C(=C/c1cccc(F)c1)CC2 |  |  |  |  |  | inhibition [7]: 86.3%
29 | Cc1c(OCc2ccccc2)cccc1N1CCN(CCNC2CCN(Cc3ccccc3)CC2)CC1 | 54.1 | 57.3 |  |  |  | 
30 | COc1cc(/C=C/c2cc(/C=C/c3ccc(O)c(OC)c3)n(-c3ccc(Cl)nn3)n2)ccc1O |  |  | 46 | 54 | 3.4 | IC50 [6]: > 1000 nM

The next lines start with results.

Row | inhibition [1] [%] | inhibition [2] [%] | DC50 [3] [µM] | IC50 [4] [µM] | IC50 [5] [µM] | Compound | further results
31 | 57.7 | 62.9 |  |  |  | c1ccc(Cn2ccc3c(N4CCN(CCCCNc5c6c(nc7ccccc57)CCCC6)CC4)cccc32)cc1 | 
32 | 67.4 | 70.3 |  |  |  | Cc1c(OCc2ccccc2)cccc1N1CCN(CCCCCCCNc2c3c(nc4ccccc24)CCCC3)CC1 | 
33 | 66.9 | 64 |  |  |  | Cc1c(OCc2ccccc2)cccc1N1CCN(CCCCCCNc2c3c(nc4ccccc24)CCCC3)CC1 | 
34 | 66.7 | 60.2 |  |  |  | Cc1c(OCc2ccccc2)cccc1N1CCN(CCCCCCCCNc2c3c(nc4ccccc24)CCCC3)CC1 | 
35 | 55.7 | 58.6 |  |  |  | Cc1c(OCc2ccccc2)cccc1N1CCN(CCNc2c3c(nc4ccccc24)CCCC3)CC1 | 
